Source: patent publication EP0303483A2, “Novel lymphokine and compositions thereof” (THE UNIVERSITY OF BRITISH COLUMBIA, priority 1987, dated 1989)

Test system: BDF1 spleen cells
Assay: CTL induction, PHA-P-mediated cytotoxicity assay (51Cr-labelled P815 targets), BDF1 spleen cells
Format: cell-based, mice
Conditions: 5 x 10³ BDF1 spleen cells
Experimental: Cultures and Assays: The culture medium used was Iscove's Modified Dulbecco's medium supplemented with 10% fetal bovine serum (Bocknek, Rexdale, Ontario), 5 x 10⁻⁵M 2-mercaptoethanol, 50 U/ml of Penicillin and 50 µg/ml streptomycin. All cultures were incubated at 37°C in 5% CO₂ in humid air.
For CTL assays, cultures were set up by incubating the indicated number of spleen cells, lymph node cells or thymocytes with the appropriate lymphokine in conical bottomed microtiter plates (Flow Laboratories, #76-023-05) as previously described by Teh et al, 1983, supra. Five days later the cultures were assessed for cytotoxic activity in phytohemaglutinin (PHA-P)-mediated cytotoxicity assay as described by Bevan and Cohn, J. Immunol 1975 114:559. This assay detects CTL of all specificities. A total of 3 x 10³ ⁵¹Cr-labelled P815 (H-2^d) mastocytoma target cells (available from ATCC®) and 10 µg/ml of PHA-P were added to each well. Spontaneous release during the 3.5 hr assay period was about 10% of the maximum releasable counts.

## CCCCCCCCCCCCCC(=O)O[C@@H]1[C@@H](C)[C@@]2(O)[C@@H](C=C(CO)C[C@]3(O)C(=O)C(C)=C[C@@H]23)[C@@H]2C(C)(C)[C@]12OC(C)=O [PMA, phorbol-12-myristate-13-acetate]
PMA 0.03 ng/ml with rIL-2 20 U/ml
  % specific lysis (M SE): 3.5 ± 1.5%
PMA 0.1 ng/ml alone
  % specific lysis (M SE): -2.2 ± 1.4%
PMA 0.1 ng/ml with rIL-2 20 U/ml
  % specific lysis (M SE): 15.7 ± 5.1%
PMA 0.3 ng/ml alone
  % specific lysis (M SE): -3.2 ± 1.7%
PMA 0.3 ng/ml with rIL-2 20 U/ml
  % specific lysis (M SE): 14.8 ± 3.3%
PMA 1.0 ng/ml alone
  % specific lysis (M SE): -2.5 ± 0.9%
PMA 1.0 ng/ml with rIL-2 20 U/ml
  % specific lysis (M SE): 2.8 ± 1.3%
PMA 3.0 ng/ml alone
  % specific lysis (M SE): -1.0 ± 1.8%
PMA 3.0 ng/ml with rIL-2 20 U/ml
  % specific lysis (M SE): 4.3 ± 1.4%
PMA 10.0 ng/ml alone
  % specific lysis (M SE): -0.9 ± 1.6%
PMA 10.0 ng/ml with rIL-2 20 U/ml
  % specific lysis (M SE): -0.4 ± 0.9%
